# Data published in patent EP4431115A1, “COMPOUND PHARMACEUTICAL PREPARATION CONTAINING OIL COMPONENT COMPRISING POLYOXYETHYLENE STRUCTURE” (CHUGAI SEIYAKU KABUSHIKI KAISHA, priority 2022, dated 2023).
# Bridge positions count the residues as written; N and C are the ends. Square brackets hold non-standard residues; d marks the D form. Peptide text beside a SMILES is read from it. * marks the point of attachment. hPhe(3,5-F2-4-CF3) = N[C@@H](CCc1cc(F)c(C(F)(F)F)c(F)c1)C(=O)O; hPhe(3-Cl-4-CF3) = N[C@@H](CCc1ccc(C(F)(F)F)c(Cl)c1)C(=O)O; NMeGly(cPent) = CN[C@H](C(=O)O)C1CCCC1; NMeCha = CN[C@@H](CC1CCCCC1)C(=O)O; Hyp = O=C(O)[C@@H]1C[C@@H](O)CN1; NMeF = CN[C@@H](Cc1ccccc1)C(=O)O; NMeD = CN[C@@H](CC(=O)O)C(=O)O; NMeL = CN[C@@H](CC(C)C)C(=O)O; NMeA = CN[C@@H](C)C(=O)O; Piperidide = C1CCN(*)CC1; Ac5c = NC1(C(=O)O)CCCC1; Aze = O=C(O)[C@@H]1CCN1; Sar = CNCC(=O)O; tBu = CC(C)(C)*
# Experiment: Evaluation of solubility of cyclic peptide compound in phosphate buffer (Example 3-3)
# Type: physicochemical
# Conditions: 50 mM phosphate buffer solution pH 6.5, 37°C, 22 to 24 hours
# Experimental: Evaluation of the solubility of the cyclic peptide compound was performed. To lyophilized powder of the compound, a 50 mM phosphate buffer solution (PPB: Phosphate buffer, pH 6.5) was added, and after shaking (at 37°C, 1800 rpm, for 22 to 24 hours), the mixed solution was filtered through a filter, and the compound concentration of the filtrate was measured by LC/MS/MS. Solubility was calculated from the measured compound concentration. The solubilities of the compounds 3, 4, 6, 7, and 8 were 11 µg/mL, 1 µg/mL, 1 µg/mL, 15 µg/mL, and 5 µg/mL, respectively.
row,Solubility [µg/mL],Structure (SMILES)
1,1,CC[C@H](C)[C@@H]1NC(=O)[C@H](CC(C)C)N(C)C(=O)C[C@@H](C(=O)N2CCCCC2)N(C)C(=O)[C@H](C2CCCC2)N(C)C(=O)C2(CCCC2)NC(=O)[C@@H]2CCCN2C(=O)[C@H](CCc2ccc(C(F)(F)F)c(Cl)c2)NC(=O)CN(C)C(=O)[C@H](CC2CCCCC2)N(C)C(=O)[C@@H]2CCN2C(=O)[C@H](C)N(C)C1=O [Compound 6] ([NMeL]I[NMeA][Aze][NMeCha][Sar][hPhe(3-Cl-4-CF3)]P[Ac5c][NMeGly(cPent)][NMeD]-Piperidide; lactam N-11)
2,5,"CCO[C@@H]1C[C@H]2C(=O)NC3(CCCC3)C(=O)N(C)[C@@H](C3CCCC3)C(=O)N(C)[C@H](C(=O)N(C)C)CC(=O)N(C)[C@@H](CC(C)C)C(=O)N[C@@H]([C@@H](C)CC)C(=O)N(C)[C@@H](C)C(=O)N3CC[C@H]3C(=O)N(C)[C@@H](CC3CCCCC3)C(=O)N(C)CC(=O)N[C@@H](CCc3cc(F)c(C(F)(F)F)c(F)c3)C(=O)N2C1 [Compound 8] ([NMeL]I[NMeA][Aze][NMeCha][Sar][hPhe(3,5-F2-4-CF3)][Hyp](Et)[Ac5c][NMeGly(cPent)][NMeD]-NMe2; lactam N-11)"
3,1,CC(C)C[C@@H]1NC(=O)[C@H](Cc2ccccc2)N(C)C(=O)[C@H](COC(C)(C)C)NC(=O)[C@H](Cc2ccccc2)N(C)C(=O)[C@H](C)N(C)C(=O)[C@H](CC(C)C)N(C)C(=O)[C@@H](C)NC(=O)C[C@@H](C(=O)N2CCCCC2)NC(=O)[C@H](Cc2ccccc2)N(C)C(=O)[C@H]([C@@H](C)O)NC(=O)[C@H](CC(C)C)N(C)C1=O [Compound 4] ([dA][NMeL][NMeA][NMeF]S(tBu)[NMeF]L[NMeL]T[NMeF]D-Piperidide; lactam N-11)
